Source: PubChem BioAssay (NCI)
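1) Cells in 96-well plates. 2) Compound, 48 h, 5 concentrations. 3) Linear interpolation between surrounding doses. 4) Unreached endpoint = highest concentration. TGI marks complete inhibition of growth.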

Assays:
Test in all cases: NCI-60 cell line screen, 48 h
[1] = tested on: 786-0 renal
[2] = tested on: A498 renal
[3] = tested on: A549 NSCLC
[4] = tested on: ACHN renal
[5] = tested on: BT-549 breast
[6] = tested on: CAKI-1 renal
[7] = tested on: CCRF-CEM leukemia
[8] = tested on: COLO 205 colon
[9] = tested on: DU-145 prostate
[10] = tested on: EKVX NSCLC
[11] = tested on: HCC-2998 colon
[12] = tested on: HCT-116 colon
[13] = tested on: HCT-15 colon
[14] = tested on: HL-60(TB) leukemia
[15] = tested on: HOP-62 NSCLC
[16] = tested on: HOP-92 NSCLC
[17] = tested on: HS 578T breast
[18] = tested on: HT29 colon
[19] = tested on: IGROV1 ovarian
[20] = tested on: K-562 leukemia
[21] = tested on: KM12 colon
[22] = tested on: LOX IMVI melanoma
[23] = tested on: M14 melanoma
[24] = tested on: MALME-3M melanoma
[25] = tested on: MCF7 breast
[26] = tested on: MDA-MB-231 breast
[27] = tested on: MDA-MB-435
[28] = tested on: MDA-N
[29] = tested on: MOLT-4 leukemia
[30] = tested on: NCI-H226 lung
[31] = tested on: NCI-H23 lung
[32] = tested on: NCI-H460 lung
[33] = tested on: NCI-H522 lung
[34] = tested on: NCI/ADR-RES ovarian
[35] = tested on: OVCAR-3 ovarian
[36] = tested on: OVCAR-4 ovarian
[37] = tested on: OVCAR-5 ovarian
[38] = tested on: OVCAR-8 ovarian
[39] = tested on: PC-3 prostate
[40] = tested on: RPMI-8226 leukemia
[41] = tested on: RXF 393 renal
[42] = tested on: SF-268 CNS
[43] = tested on: SF-295 CNS
[44] = tested on: SF-539 CNS
[45] = tested on: SK-MEL-2 melanoma
[46] = tested on: SK-MEL-28 melanoma
[47] = tested on: SK-MEL-5 melanoma
[48] = tested on: SK-OV-3 ovarian
[49] = tested on: SN12C renal
[50] = tested on: SNB-75 CNS
[51] = tested on: SR leukemia
[52] = tested on: SW-620 colon
[53] = tested on: T-47D breast
[54] = tested on: TK-10 renal
[55] = tested on: U251 CNS
[56] = tested on: UACC-257 melanoma
[57] = tested on: UO-31 renal
[58] = tested on: SNB-19 CNS
[59] = tested on: UACC-62 melanoma

COc1ccc(/C=C2\N=C(N/N=C\C(O)C(O)C(O)C(O)CO)NC2=O)cc1 (stereo not given)
TGI [1]: > 100 µM
TGI [2]: 93 µM
TGI [3]: > 100 µM
TGI [4]: > 100 µM
TGI [5]: 50.6 µM
TGI [6]: > 100 µM
TGI [7]: > 100 µM
TGI [8]: > 100 µM
TGI [9]: > 100 µM
TGI [10]: > 100 µM
TGI [11]: > 100 µM
TGI [12]: > 100 µM
TGI [13]: > 100 µM
TGI [14]: > 100 µM
TGI [15]: 54.9 µM
TGI [16]: 33.9 µM
TGI [17]: 71.7 µM
TGI [18]: > 100 µM
TGI [19]: > 100 µM
TGI [20]: > 100 µM
TGI [21]: > 100 µM
TGI [22]: > 100 µM
TGI [23]: 35.7 µM
TGI [24]: 43.4 µM
TGI [25]: > 100 µM
TGI [26]: 88.5 µM
TGI [27]: 91.1 µM
TGI [28]: 39.6 µM
TGI [29]: 62.3 µM
TGI [30]: > 100 µM
TGI [31]: 54 µM
TGI [32]: > 100 µM
TGI [33]: 46 µM
TGI [34]: > 100 µM
TGI [35]: 33.7 µM
TGI [36]: 53 µM
TGI [37]: > 100 µM
TGI [38]: 88.3 µM
TGI [39]: 69.5 µM
TGI [40]: > 100 µM
TGI [41]: > 100 µM
TGI [42]: 63.2 µM
TGI [43]: > 100 µM
TGI [44]: 38.5 µM
TGI [45]: 36.6 µM
TGI [46]: > 100 µM
TGI [47]: > 100 µM
TGI [48]: 50.3 µM
TGI [49]: 52.2 µM
TGI [50]: 54.3 µM
TGI [51]: > 100 µM
TGI [52]: > 100 µM
TGI [53]: 27.7 µM
TGI [54]: > 100 µM
TGI [55]: 42.7 µM
TGI [56]: > 100 µM
TGI [57]: > 100 µM

COc1nc(N)c(N=O)c(OCc2ccccc2)n1
TGI [1]: > 10 µM
TGI [2]: > 10 µM
TGI [3]: > 10 µM
TGI [4]: > 10 µM
TGI [5]: > 10 µM
TGI [6]: > 10 µM
TGI [7]: 6.84 µM
TGI [8]: 2.37 µM
TGI [9]: > 10 µM
TGI [10]: > 10 µM
TGI [11]: > 10 µM
TGI [12]: > 10 µM
TGI [13]: > 10 µM
TGI [14]: > 10 µM
TGI [15]: > 10 µM
TGI [16]: > 10 µM
TGI [17]: > 10 µM
TGI [18]: > 10 µM
TGI [19]: > 10 µM
TGI [20]: > 10 µM
TGI [21]: > 10 µM
TGI [22]: > 10 µM
TGI [23]: > 10 µM
TGI [24]: 5.97 µM
TGI [25]: > 10 µM
TGI [26]: > 10 µM
TGI [27]: > 10 µM
TGI [28]: > 10 µM
TGI [29]: > 10 µM
TGI [30]: > 10 µM
TGI [31]: > 10 µM
TGI [32]: > 10 µM
TGI [33]: 3.59 µM
TGI [34]: > 10 µM
TGI [35]: > 10 µM
TGI [36]: > 10 µM
TGI [37]: > 10 µM
TGI [38]: > 10 µM
TGI [39]: > 10 µM
TGI [40]: > 10 µM
TGI [41]: > 10 µM
TGI [42]: > 10 µM
TGI [43]: > 10 µM
TGI [44]: > 10 µM
TGI [45]: > 10 µM
TGI [46]: > 10 µM
TGI [47]: > 10 µM
TGI [48]: > 10 µM
TGI [49]: > 10 µM
TGI [58]: > 10 µM
TGI [50]: > 10 µM
TGI [51]: > 10 µM
TGI [52]: 4.35 µM
TGI [53]: 5.49 µM
TGI [54]: > 10 µM
TGI [55]: > 10 µM
TGI [56]: > 10 µM
TGI [59]: > 10 µM
